Each structure is given as a SMILES string. pKi: −log10 of the molar value.

The assay concerns the target T1, recombinant human NK3 receptor (Homo sapiens, UniProt P29371).
T1 construct: expressed in transfected cells; host or cells: HEK293 cells, transient expression; membrane preparation
T1 sequence (P29371 1-465): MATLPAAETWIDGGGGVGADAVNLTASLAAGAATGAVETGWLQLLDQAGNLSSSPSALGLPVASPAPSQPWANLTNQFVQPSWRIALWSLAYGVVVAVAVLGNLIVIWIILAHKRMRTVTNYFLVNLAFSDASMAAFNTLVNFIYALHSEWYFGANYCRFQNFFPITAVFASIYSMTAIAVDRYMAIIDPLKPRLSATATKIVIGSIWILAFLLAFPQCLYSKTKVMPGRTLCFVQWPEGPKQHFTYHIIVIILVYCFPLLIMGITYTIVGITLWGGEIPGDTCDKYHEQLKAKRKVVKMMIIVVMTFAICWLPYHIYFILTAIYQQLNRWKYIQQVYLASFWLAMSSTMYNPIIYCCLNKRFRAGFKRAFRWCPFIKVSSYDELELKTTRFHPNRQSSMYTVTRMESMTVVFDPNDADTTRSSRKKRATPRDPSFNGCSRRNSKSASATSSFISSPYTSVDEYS
Nature of the assay: [3H]SR142801 competition binding assay. Conditions: [3H]SR142801, membranes of HEK293 cells transiently expressing recombinant human NK3 receptor; read-out: hNK3 Ki. The procedure, abridged:
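Ki derived by Cheng-Prusoff from Hill-fitted IC50 curves, duplicates, 10 μM SB222200 defining nonspecific binding. Radioligand used at KD concentration against compound at 0.0003-10 μM; transiently transfected HEK293 membranes, 5 μg/well, 75 min room temperature, Tris-HCl/MnCl2/phosphoramidon/BSA pH 7.4. Filter-bound counts read by scintillation.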
Regarding `CC(NC(=O)C(C)(CCN1CCC(NS(C)(=O)=O)CC1)c1ccc(Cl)c(Cl)c1)c1ccc(Cl)c(Cl)c1` (stereo not shown) [Example 19, 2-(3,4-Dichloro-phenyl)-N-[1-(3,4-dichloro-phenyl)-ethyl]-4-(4-methanesulfonyl-amino-piperidin-1-yl)-2-methyl-butyramide], the pKi was 7.22.
As to `CN(Cc1ccc(-c2ccncc2)cc1)C(=O)C(C)(CCN1CCC(NS(C)(=O)=O)CC1)c1ccc(Cl)c(Cl)c1` (stereo not shown) [Example 20, 2-(3,4-Dichloro-phenyl)-4-(4-methanesulfonyl-amino-piperidin-1-yl)-2,N-dimethyl-N-(4-pyridin-4-yl-benzyl)-butyramide], the pKi was 6.69.
Regarding `CC(CCN1CCC(NS(C)(=O)=O)CC1)(C(=O)NCc1cccc(OC(F)(F)F)c1)c1ccc(Cl)c(Cl)c1` (stereo not shown) [Example 21, 2-(3,4-Dichloro-phenyl)-4-(4-methanesulfonyl-amino-piperidin-1-yl)-2-methyl-N-(3-trifluoromethoxy-benzyl)-butyramide], the negative logarithm of the Ki (pKi) was 6.83.
The same measure for `CC(CCN1CCC(NS(C)(=O)=O)CC1)(C(=O)NCc1ccc(Cl)c(F)c1)c1ccc(Cl)c(Cl)c1` (stereo not shown) [Example 22, N-(4-Chloro-3-fluoro-benzyl)-2-(3,4-dichloro-phenyl)-4-(4-methanesulfonyl-amino-piperidin-1-yl)-2-methyl-butyramide]: 7.15; for `CC(CCN1CCC(NS(C)(=O)=O)CC1)(C(=O)NCc1ccc(OC(F)(F)F)cc1)c1ccc(Cl)c(Cl)c1` (stereo not shown) [Example 23, 2-(3,4-Dichloro-phenyl)-4-(4-methanesulfonyl-amino-piperidin-1-yl)-2-methyl-N-(4-trifluoromethoxy-benzyl)-butyramide]: 6.85; for `CC(CCN1CCC(NS(C)(=O)=O)CC1)(C(=O)NCc1ccc(Cl)c(C(F)(F)F)c1)c1ccc(Cl)c(Cl)c1` (stereo not shown) [Example 24, N-(4-Chloro-3-trifluoromethyl-benzyl)-2-(3,4-dichloro-phenyl)-4-(4-methanesulfonyl-amino-piperidin-1-yl)-2-methyl-butyramide]: 7.15.
The value for `CN(Cc1ccc(C(F)(F)F)cc1)C(=O)C(C)(CCN1CCC(NS(C)(=O)=O)CC1)c1ccc(Cl)c(Cl)c1` (stereo not shown) [Example 25, 2-(3,4-Dichloro-phenyl)-4-(4-methanesulfonyl-amino-piperidin-1-yl)-2,N-dimethyl-N-(4-trifluoromethyl-benzyl)-butyramide] was 7.54; that for `CN(Cc1ccc(Cl)cc1)C(=O)C(C)(CCN1CCC(NS(C)(=O)=O)CC1)c1ccc(Cl)c(Cl)c1` (stereo not shown) [Example 26, N-(4-Chloro-benzyl)-2-(3,4-dichloro-phenyl)-4-(4-methanesulfonyl-amino-piperidin-1-yl)-2,N-dimethyl-butyramide] was 7.58; that for `CC(CCN1CCC(NS(C)(=O)=O)CC1)(C(=O)NCc1ccc(C#N)cc1)c1ccc(Cl)c(Cl)c1` (stereo not shown) [Example 27, N-(4-Cyano-benzyl)-2-(3,4-dichloro-phenyl)-4-(4-methanesulfonyl-amino-piperidin-1-yl)-2-methyl-butyramide] was 6.58.
The value for `CN(Cc1cccc(C(F)(F)F)c1)C(=O)C(C)(CCN1CCC(NS(C)(=O)=O)CC1)c1ccc(Cl)c(Cl)c1` (stereo not shown) [Example 28, 2-(3,4-Dichloro-phenyl)-4-(4-methanesulfonyl-amino-piperidin-1-yl)-2,N-dimethyl-N-(3-trifluoromethyl-benzyl)-butyramide] was 7.66; that for `CN(Cc1cccc(Cl)c1)C(=O)C(C)(CCN1CCC(NS(C)(=O)=O)CC1)c1ccc(Cl)c(Cl)c1` (stereo not shown) [Example 29, N-(3-Chloro-benzyl)-2-(3,4-dichloro-phenyl)-4-(4-methanesulfonyl-amino-piperidin-1-yl)-2,N-dimethyl-butyramide] was 7.31; that for `CN(Cc1cccc(F)c1)C(=O)C(C)(CCN1CCC(NS(C)(=O)=O)CC1)c1ccc(Cl)c(Cl)c1` (stereo not shown) [Example 30, 2-(3,4-Dichloro-phenyl)-N-(3-fluoro-benzyl)-4-(4-methanesulfonyl-amino-piperidin-1-yl)-2,N-dimethyl-butyramide] was 6.91.
For `CN(Cc1ccc(C(F)(F)F)nc1)C(=O)C(C)(CCN1CCC(NS(C)(=O)=O)CC1)c1ccc(Cl)c(Cl)c1` (stereo not shown) [Example 31, 2-(3,4-Dichloro-phenyl)-4-(4-methanesulfonyl-amino-piperidin-1-yl)-2,N-dimethyl-N-(6-trifluoromethyl-pyridin-3-ylmethyl)-butyramide], the pKi is 6.30.
The same measure for `CN(Cc1ccc(C(F)(F)F)c(F)c1)C(=O)C(CCN1CCC(NS(C)(=O)=O)CC1)c1ccc(Cl)c(Cl)c1` (stereo not shown) [Example 32, 2-(3,4-Dichloro-phenyl)-N-(3-fluoro-4-trifluoromethyl-benzyl)-4-(4-methanesulfonyl-amino-piperidin-1-yl)-N-methyl-butyramide]: 7.21; for `CN(Cc1ccc(C(F)(F)F)cc1)C(=O)C(CCN1CCC(NS(C)(=O)=O)CC1)c1ccc(Cl)c(Cl)c1` (stereo not shown) [Example 33, 2-(3,4-Dichloro-phenyl)-4-(4-methanesulfonyl-amino-piperidin-1-yl)-N-methyl-N-(4-trifluoromethyl-benzyl)-butyramide]: 7.09; for `CN(Cc1ccc(Cl)c(Cl)c1)C(=O)C(CCN1CCC(NS(C)(=O)=O)CC1)c1ccc(Cl)c(Cl)c1` (stereo not shown) [Example 34, N-(3,4-Dichloro-benzyl)-2-(3,4-dichloro-phenyl)-4-(4-methanesulfonyl-amino-piperidin-1-yl)-N-methyl-butyramide]: 7.11.
The same measure for `CN(Cc1ccc(Cl)c(C(F)(F)F)c1)C(=O)C(CCN1CCC(NS(C)(=O)=O)CC1)c1ccc(Cl)c(Cl)c1` (stereo not shown) [Example 35, N-(4-Chloro-3-trifluoromethyl-benzyl)-2-(3,4-dichloro-phenyl)-4-(4-methanesulfonyl-amino-piperidin-1-yl)-N-methyl-butyramide]: 6.83; for `CS(=O)(=O)NC1CCN(CCC(C(=O)NCc2ccc(Cl)c(C(F)(F)F)c2)c2ccc(Cl)c(Cl)c2)CC1` (stereo not shown) [Example 36, N-(4-Chloro-3-trifluoromethyl-benzyl)-2-(3,4-dichloro-phenyl)-4-(4-methanesulfonyl-amino-piperidin-1-yl)-butyramide]: 6.45.
The same measure for `CN(Cc1ccc(Cl)cc1)C(=O)C(CCN1CCC(NS(C)(=O)=O)CC1)c1ccc(Cl)c(Cl)c1` (stereo not shown) [Example 37, N-(4-Chloro-benzyl)-2-(3,4-dichloro-phenyl)-4-(4-methanesulfonyl-amino-piperidin-1-yl)-N-methyl-butyramide]: 7.10; for `Cc1ccc(CN(C)C(=O)C(CCN2CCC(NS(C)(=O)=O)CC2)c2ccc(Cl)c(Cl)c2)cc1` (stereo not shown) [Example 38, 2-(3,4-Dichloro-phenyl)-4-(4-methanesulfonyl-amino-piperidin-1-yl)-N-methyl-N-(4-methyl-benzyl)-butyramide]: 7.03.
As for `CN(Cc1cccc(Cl)c1)C(=O)C(CCN1CCC(NS(C)(=O)=O)CC1)c1ccc(Cl)c(Cl)c1` (stereo not shown) [Example 39, N-(3-Chloro-benzyl)-2-(3,4-dichloro-phenyl)-4-(4-methanesulfonyl-amino-piperidin-1-yl)-N-methyl-butyramide], the negative logarithm of the Ki (pKi) is 6.67.
The value for `CN(Cc1cccc(C(F)(F)F)c1)C(=O)C(CCN1CCC(NS(C)(=O)=O)CC1)c1ccc(Cl)c(Cl)c1` (stereo not shown) [Example 40, 2-(3,4-Dichloro-phenyl)-4-(4-methanesulfonyl-amino-piperidin-1-yl)-N-methyl-N-(3-trifluoromethyl-benzyl)-butyramide] was 6.55.

Broadly, the pKi is −log10 of the Ki, conventionally taken in molar units.

The values above are taken from patent US20110021565A1, “PIPERIDINE DERIVATIVES AS NK3 ANTAGONISTS” (priority 2007, published 2011).
